Measurements taken from US10487093B2, “Heterocyclic compounds, in particular 2-oxo-4,4,5,5,6,6,7,7-octahydrobenzoxazole derivatives, and their use as antibacterial compounds” (priority 2016, dated 2019).
Converted amounts (≈) assume the structure as drawn. Where two headings read alike, the source gives them in different places.

Key:
Format in all cases: cell-based
[1] = test system: strains of Propionibacterium acnes; assay: MIC against anaerobes, agar dilution (CLSI), clinical isolates; conditions: Cutibacterium acnes
[2] = test system: strains of Peptoniphilus harei; assay: as above
[3] = test system: strains of Finegoldia magna; assay: as above
[4] = test system: strains of Bacteroides fragilis; assay: as above
[5] = test system: Clostridium difficile ATCC 700057; assay: MIC against anaerobes, agar dilution (CLSI), reference strain; conditions: Clostridioides difficile, ATCC700057, 48 h, read-out: MIC, C. difficile ATCC 700057
[6] = test system: strains of Parvimonas micra; assay: MIC against anaerobes, agar dilution (CLSI), clinical isolates

CN[C@H](CC(C)C)C(=O)N[C@H]1C(=O)N[C@@H](CC(N)=O)C(=O)N[C@H]2C(=O)N[C@H]3C(=O)N[C@H](C(=O)N[C@H](C(=O)O)c4cc(O)cc(O)c4-c4cc3ccc4O)[C@H](O)c3ccc(c(Cl)c3)Oc3cc2cc(c3O[C@@H]2O[C@H](CO)[C@@H](O)[C@H](O)[C@H]2O[C@H]2C[C@](C)(N)[C@H](O)[C@H](C)O2)Oc2ccc(cc2Cl)[C@H]1O [VAN, vancomycin, reference compound]
MIC ([1]; Propionibacterium acnes strain 1): < 1 µg/mL
MIC ([1]; Propionibacterium acnes strain 2): < 1 µg/mL
MIC ([1]; Propionibacterium acnes strain 3): < 1 µg/mL
MIC ([1]; Propionibacterium acnes strain 4): < 1 µg/mL
MIC ([1]; Propionibacterium acnes strain 5): < 1 µg/mL
MIC ([1]; Propionibacterium acnes strain 6): < 1 µg/mL
MIC ([1]; Propionibacterium acnes strain 7): < 1 µg/mL
MIC ([1]; Propionibacterium acnes strain 8): < 1 µg/mL
MIC ([1]; Propionibacterium acnes strain 9): < 1 µg/mL
MIC ([1]; Propionibacterium acnes strain 10): < 1 µg/mL
MIC ([1]; Propionibacterium acnes strain 11): < 1 µg/mL
MIC ([1]; Propionibacterium acnes strain 12): 4 to 16 µg/mL (≈ 2.76 to 11 µM)
MIC ([2]; Peptoniphilus harei strain 1): A (a MIC (in μg/mL) of less than 1 is assigned the letter A)
MIC ([2]; Peptoniphilus harei strain 2): A (a MIC (in μg/mL) of less than 1 is assigned the letter A)
MIC ([2]; Peptoniphilus harei strain 3): A (a MIC (in μg/mL) of less than 1 is assigned the letter A)
MIC ([2]; Peptoniphilus harei strain 4): A (a MIC (in μg/mL) of less than 1 is assigned the letter A)
MIC ([2]; Peptoniphilus harei strain 5): A (a MIC (in μg/mL) of less than 1 is assigned the letter A)
MIC ([2]; Peptoniphilus harei strain 6, read-out: MIC): < 1 µg/mL
MIC ([2]; Peptoniphilus harei strain 7): A (a MIC (in μg/mL) of less than 1 is assigned the letter A)
MIC ([2]; Peptoniphilus harei strain 8): A (a MIC (in μg/mL) of less than 1 is assigned the letter A)
MIC ([2]; Peptoniphilus harei strain 9): A (a MIC (in μg/mL) of less than 1 is assigned the letter A)
MIC ([2]; Peptoniphilus harei strain 10): A (a MIC (in μg/mL) of less than 1 is assigned the letter A)
MIC ([2]; Peptoniphilus harei strain 11): A (a MIC (in μg/mL) of less than 1 is assigned the letter A)
MIC ([2]; Peptoniphilus harei strain 12): A (a MIC (in μg/mL) of less than 1 is assigned the letter A)
MIC ([3]; Finegoldia magna strain 1): A (a MIC (in μg/mL) of less than 1 is assigned the letter A)
MIC ([3]; Finegoldia magna strain 2): A (a MIC (in μg/mL) of less than 1 is assigned the letter A)
MIC ([3]; Finegoldia magna strain 3): A (a MIC (in μg/mL) of less than 1 is assigned the letter A)
MIC ([3]; Finegoldia magna strain 4): A (a MIC (in μg/mL) of less than 1 is assigned the letter A)
MIC ([3]; Finegoldia magna strain 5): A (a MIC (in μg/mL) of less than 1 is assigned the letter A)
MIC ([3]; Finegoldia magna strain 6, read-out: MIC): < 1 µg/mL
MIC ([3]; Finegoldia magna strain 7): A (a MIC (in μg/mL) of less than 1 is assigned the letter A)
MIC ([3]; Finegoldia magna strain 8): A (a MIC (in μg/mL) of less than 1 is assigned the letter A)
MIC ([3]; Finegoldia magna strain 9): A (a MIC (in μg/mL) of less than 1 is assigned the letter A)
MIC ([3]; Finegoldia magna strain 10): A (a MIC (in μg/mL) of less than 1 is assigned the letter A)
MIC ([3]; Finegoldia magna strain 11): A (a MIC (in μg/mL) of less than 1 is assigned the letter A)
MIC ([3]; Finegoldia magna strain 12): A (a MIC (in μg/mL) of less than 1 is assigned the letter A)
MIC ([4]; Bacteroides fragilis strain 1): 16 to 64 µg/mL (≈ 11 to 44.2 µM)
MIC ([4]; Bacteroides fragilis strain 2): 16 to 64 µg/mL (≈ 11 to 44.2 µM)
MIC ([4]; Bacteroides fragilis strain 3): 4 to 16 µg/mL (≈ 2.76 to 11 µM)
MIC ([4]; Bacteroides fragilis strain 4): 16 to 64 µg/mL (≈ 11 to 44.2 µM)
MIC ([4]; Bacteroides fragilis strain 5): 16 to 64 µg/mL (≈ 11 to 44.2 µM)
MIC ([4]; Bacteroides fragilis strain 6): 4 to 16 µg/mL (≈ 2.76 to 11 µM)
MIC ([4]; Bacteroides fragilis strain 7): 4 to 16 µg/mL (≈ 2.76 to 11 µM)
MIC ([4]; Bacteroides fragilis strain 8): 16 to 64 µg/mL (≈ 11 to 44.2 µM)
MIC ([4]; Bacteroides fragilis strain 9): 4 to 16 µg/mL (≈ 2.76 to 11 µM)
MIC ([4]; Bacteroides fragilis strain 10): 16 to 64 µg/mL (≈ 11 to 44.2 µM)
MIC ([4]; Bacteroides fragilis strain 11): 16 to 64 µg/mL (≈ 11 to 44.2 µM)
MIC ([4]; Bacteroides fragilis strain 12): 16 to 64 µg/mL (≈ 11 to 44.2 µM)
MIC [5]: 1 to 4 µg/mL (≈ 0.69 to 2.76 µM)
MIC ([6]; Parvimonas micra strain 1): < 1 µg/mL
MIC ([6]; Parvimonas micra strain 2): < 1 µg/mL
MIC ([6]; Parvimonas micra strain 3): < 1 µg/mL
MIC ([6]; Parvimonas micra strain 4): 1 to 4 µg/mL (≈ 0.69 to 2.76 µM)
